# Measurements as given in patent US20260327211A1, “MODULATORS OF A POTASSIUM CHANNEL AND OF TRPV1 CHANNEL AND USES THEREOF” (Bsense Bio Therapeutics Ltd., priority 2023, published 2026).
# Values joined by “and” are separate entries in the source; they are usually repeats but may differ in a detail not shown here. Identical values can stand only once.
# Tests used:
# [1] = Metabolite identification (Met-ID), human hepatocytes; type: in vitro ADME; details: human hepatocytes
# Procedure: Cell culture and incubation: Cryopreserved hepatocyte cells, from human and rat sources, were purchased from commercial sources or in-house production, and were cultured in Williams' Medium E supplemented with glutamine and HEPES, in a humidified 5% CO2 incubator at 37° C., to a cell density of […]. Then, solutions of test compounds at a concentration of 10 μM, or 7-Ethoxycoumarin, as a positive control, at a concentration of 30 μM, in Eagle's Minimum Essential Medium, Catalog No. 30-2003 (ATCC) supplemented with 20% fetal bovine serum, were introduced and the mixture was incubated for 120 minutes, or other specified time points.
# The samples were analyzed for metabolites using an LC-MS method developed on […] and PDA systems. Comparative analyses of mass spectra and ion fragmentation between the parent compound and its metabolites were carried out, and metabolic profiling was determined using the mass spectrometric and/or PDA (UV) response. Hypothetical structures of metabolites and their metabolic pathways were proposed.
# [2] = Bidirectional permeability in Caco-2 cells; type: in vitro ADME, human; details: human, Caco-2, pH 7.4, 2.00 μM
# Procedure: Cell culture: Caco-2 cells (ATCC) were seeded onto polycarbonate (PC) membranes in 96-well insert plates. The cells were cultured in media for 21-28 days prior to performing the transport assays.
# Validation of monolayer integrity: Once the Caco-2 cells formed a confluent monolayer, their integrity was evaluated using a Lucifer yellow rejection assay. The monolayer integrity was further evaluated by measuring, in duplicate wells, the unidirectional (A→B) permeability of nadolol (a low permeability marker) and metoprolol (a high permeability marker), as well as bidirectional permeability of digoxin (a P-glycoprotein substrate marker).
# Assay: The compounds were assayed under bidirectional transport conditions (A→B and B→A) at a concentration of 2.00 μM (with DMSO≤1.0%), using a transport buffer composed of HBSS containing 10.0 mM HEPES, pH 7.40±0.05. The incubation was carried out at 37° C., with 5.0% CO2 and relatively saturated humidity for 2 hours.
# The dosing solution was spiked and mixed with the transport buffer and a Stop Solution (containing an internal standard (IS)) to create a T0 sample.
# Sample analysis: Following the incubation, all of the samples were analyzed using LC-MS/MS. The concentrations of the test compounds were expressed as peak area ratios of the analytes versus the IS.
# [3] = Log D, 1-octanol/buffer shake flask; type: physicochemical; details: 1-octanol/phosphate buffer, pH 7.4; read-out: LogD
# Procedure: The Log D assay was a miniaturized 1-octanol/buffer shake flask method followed by LC/MS/MS analysis, as follows.
# The test compounds or control compounds Nadolol, Chlorpromazine Hydrochloride and Propranolol Hydrochloride were dissolved in 100% DMSO to obtain 10 mM solutions, which were transferred to 96-well polypropylene cluster tubes; 2 μL/well. 1-octanol saturated with 0.1 M phosphate buffer (149 μL/well) and 0.1 M phosphate buffer saturated with 1-octanol (149 μL/well) were added to the tubes, respectively, and each tube was vigorously mixed for 2 minutes and then shaked at a speed of 800 rpm at room temperature for 1 hour, followed by centrifugation at 4000 rpm for 5 minutes at room temperature. Thereafter, for the test compounds and the Chlorpromazine Hydrochloride and Propranolol Hydrochloride, the sample of the buffer layer was diluted by a factor of 50-fold and the sample of 1-octanol layer was diluted by a factor of 2000-fold with internal standard (IS) solution. For Nadolol, the sample of the buffer layer was diluted by a factor of 1000-fold and the sample of 1-octanol layer was diluted by a factor of 400-fold with internal standard (IS) solution. The samples were analyzed using a triple quadrupole mass spectrometer. Peak areas were corrected by dilution factors and embedded internal standard, and the ratio of the corrected peak areas was used to calculate the Log D value. The Log D value for each compound will be calculated by the following equation: […]
# [4] = Human liver microsome metabolic stability; type: in vitro ADME; details: for half-life at 1 µM: human, liver microsomes, human liver microsomes, read-out: HLM T1/2
# Source text: Liver microsomes which are subcellular particles derived from endoplasmic reticulum of hepatic cells were used for evaluating the tested compounds. These particles are rich in drug metabolizing enzymes, including the cytochrome p-450 family. Liver microsomes are a recommended test system for various in vitro drug metabolism and pharmacokinetics (DMPK) studies. CLint values lower than […] are considered suitable for drug development.
# Liver Microsome Metabolic Stability Assay (NADPH): The liver microsome stability assay was evaluated through pre-incubation with HLMs. A liver microsome mixture (pooled from multiple donors) at a concentration of 0.5 mg/mL, and the test compound at a concentration of 1 μM, were warmed in the presence of a NADPH regenerating system (about 1.0 mM) at 37° C. Positive controls, including testosterone (a CYP3A4 substrate), propafenone (a CYP2D6 substrate), and diclofenac (a CYP2C9) substrate, were concurrently incubated with the HLMs, in the presence of the NADPH regenerating system (1.0 mM). Samples were extracted during incubation at multiple intervals: 0, 5, 15, 30, 45 and 60 minutes. To terminate the reactions, the samples were promptly mixed with cooled acetonitrile that included an internal standard (IS). An additional compound was incubated with the HLMs in the absence of the NADPH regeneration system, from which a sample was taken at the 60-minute interval.
# The clearance of the test compound in the samples was subsequently analyzed by LC-MS/MS based on the peak area ratios of the analyte to the IS.
# The following equation was used to calculate the microsome clearance: […]
# Liver weight: 40 grams/kg, 30 grams/kg, 32 grams/kg, 20 grams/kg and 88 grams/kg, for rat, monkey, dog, human and mouse, respectively.
# hTRPV1 = target: T1, hTRPV1 (Homo sapiens, UniProt Q8NER1); assay: hTRPV1 dual activity electrophysiology, CHO cells co-expressing hKv7.2/3 and hTRPV1; type: cell-based; details: Dual hTRPV1 / Dual Expressing CHO, CAP IC50, Kv7.2/3 co-expressed and activated, capsaicin
# T1 construct: CDS of NM_080704.4, inserted into the multiple cloning site of pcDNA3.1(+); host or cells: CHO/hKv7.2/3
# Procedure: Cell culture and DNA transfection: CHO/hKv7.2/3 cells were transfected with hTRPV1 DNA constructs (CDS of NM_080704.4, inserted into the multiple cloning site of pcDNA3.1(+) between the Hind III and BamH I restriction site, Genscript). For CHO transfection, 1×10^6 cells were suspended in a reaction mix (Amaxa™ 4D-Nucleofector™-LONZA) containing 5 μg of hTRPV1 DNA and 0.5 μg of GFP DNA (for cells selection) in a cuvette.
# The cells were transformed (Amaxa, DT-133 program for CHO transfection with p-3 Kit) and recovered for 10 minutes at RT in the hood. Then cells were re-suspended in a 10 mL antibiotic (Ab)-free medium suspension and were plated on Gelatin or PLL-coated cover glass in different cell densities. On the next morning, the medium was changed to full medium containing the CHO/hKv7.2/3 cell line selection antibiotics.
# Extracellular (Bath) solution: The solution was composed of (in mM): NaCl, 140; KCl, 4; CaCl2, 1.8; MgCl2, 1.2; Glucose, 11; HEPES, 5.5. pH was adjusted to 7.3 with NaOH. Osmolarity was adjusted to 310 mOsm with Sucrose.
# Intracellular (Pipette) solution: Pipettes were pulled from borosilicate glass (Warner Instrument Corp, USA) with a resistance of 3-7 MΩ and were filled with internal solution composed of (in mM): KCl, 130; MgCl2, 1; K ATP, 5; EGTA, 5; HEPES, 10. pH was adjusted to 7.3 with KOH. Osmolarity was adjusted to 290 mOsm with Sucrose.
# A programmable valve-linked pressurized perfusion system was used for local application of compounds nearby the cell recorded in a consistent flow rate of 2-3 mL/minute. Series resistance was corrected and data were sampled at 5 kHz and low pass filtered at 2.4 kHz using MultiClamp 700B amplifier with pCLAMP11 software (Molecular Devices, USA).
# At least 48 hours following cell transfection and plating, cells were recorded to assess the TRPV1 dual activity. Membrane potential was held at −90 mV. To measure the inhibitory effects of the tested compounds on hTRPV1 dual activity the following protocol was performed:
# Cells were perfused with vehicle-only containing bath solution. After 30 seconds, a single −40 mV 1.5 second step was applied for Kv7.2/3 activation and 30 seconds later capsaicin (1 μM) was applied for 6 seconds to activate the TRPV1.
# Cells perfusion was changed to a compound-containing bath solution, and after 2 minutes and 30 seconds of compound application, a single −40 mV 1.5 second step was applied for Kv7.2/3 activation and 30 seconds later capsaicin (1 μM) was applied for 6 seconds to activate the TRPV1.
# Cells perfusion was thereafter changed back to vehicle only-containing bath solution. After 30 seconds, a single −40 mV 1.5 step was applied for Kv7.2/3 activation and 30 seconds later capsaicin (1 μM) was applied for 6 seconds to activate the TRPV1 followed by a capsaicin wash out.
# The drug current response, when capsaicin was injected following 3 minutes of pre-incubation with the test compound, was divided by the averaged control currents, induced without compound, before compound incubation and following its washout, to evaluate the drug/control response.
# CHO-K1 cells = assay: In vitro micronucleus; type: cell-based; details: hamster
# Procedure: (§1) The micronucleus assay was performed according to the regulatory guidelines. In brief, CHO-K1 cells were plated at 10000 cells/well in 3 plates and incubated In CHO-K1 growth medium (containing F12K, 10% FBS and 1% PS) overnight.
# (§2) As a control for the S9 treatment, plate No. 1, cells were treated with cyclophosphamide as a positive control, for 3 hours. For plate No. 2, without S9 treatment, cells were treated with mitomycin C as a positive control, compounds for 3 hours, and for plate No. 3, without S9 treatment, cells were treated with bleomycin sulfate as a positive control continuously for 24 hours.
# (§3) On the following day, 6 μg/mL of cytochalasin B were added to each well and plates were further incubated overnight. In the day after medium was replaced with a combined 10 μg/mL Hoechst dye solution and 0.5 μM calcein-AM in 100 μL warm DPBS for 30 minutes and the plates were scanned using CQ1 high-content analysis system.
# In vitro micronucleus = type: cell-based; details: hamster, cho-k1 cells
# Procedure: as §1, §2, §3
# [5] = system: Spared Nerve Injury (SNI) rats; assay: Spared Nerve Injury (SNI) model, von Frey; type: in vivo, rat; details: rat, in vivo
# Procedure: All animal experiments were carried out according to the Guide for the Care and Use of Laboratory Animals (2011 edition) and approved by the Israel National Institutional Animal Care and Use Committee (IACUC). Young adult male SD rats (Envigo RMS, Israel), were used for in vivo efficacy: Spared Nerve Injury (SNI), Distal Tibial Injury (DTI) and Post-operative Pain (POP), 200-220 grams, Chronic Post-Ischemia Pain (CPIP) 275-325 grams, Monosodium iodoacetate-induced osteoarthritis (MIA-OA) 180-220 grams; for in vivo safety: 200-250 grams at study initiation. […] The health status of the animals used in this study was examined upon their arrival. Only animals in good health were acclimatized to laboratory conditions and were used in the studies. All studies were performed following at least five days of animal acclimation. During acclimation and throughout the entire study duration, animals were housed within a limited-access rodent facility and kept in groups with a maximum of 2-3 rats per polypropylene cage. The cages were fitted with solid bottoms and filled with sterile wood shavings as bedding material. Animals were provided ad libitum with a commercial, sterile rodent diet and had free access to drinking water that was supplied to each cage via polyethylene bottles with stainless steel sipper tubes. A feed lot analysis of the diet batch used in the study was included in the archives with the study data. Water was monitored periodically. Plastic cylinders for playing and hiding and wooden balls or sticks were added to the cages for environmental enrichment.
# SNI: The SNI procedure consisted of ligating and dissecting the tibial and common peroneal nerves, thus sparing the sural nerve. Prior to surgery, a dose of 0.03 mg/kg buprenorphine (Temgesic®) was administered to animals as a prophylaxis to alleviate the operative and postoperative pain unrelated to neuropathy. Next, animals were anesthetized with a combination of medetomidine/ketamine sodium IP. While under anesthesia a medio caudal incision of 4-5 mm parallel to the left femur was cut on shaved and disinfected skin. The sciatic nerve was exposed from underneath the muscle layer and isolated gently from the surrounding connective tissue, using curved and blunt forceps. The tibial and common peroneal nerves were first tightly ligated with double knot of 6-0 silk suture, proximally and immediately distal to the sciatic bifurcation. Thereafter, the nerves which run as a pair as physically attached to each other were cut at sites close to the ligatures, thereby removing a length of approximately 0.5 mm of the nerves, necessary to avoid the formation of any re-connection to the nerves. This procedure led to complete denervation of areas of tibial and peroneal innervation in the plantar paw, while neuropathy was developed upon the sural territories. Special care was taken not to manipulate the sural nerve, which thus was left intact. The muscle layers and skin were sutured, and animals were allowed to recover. 0.03 mg/kg buprenorphine SC was administered on postoperative days 1-2, every 12 hours, starting from the evening of Day 0. Rehydration with 4 ml of sterile saline IP was provided directly after the surgery, continuing twice a day for 7 days. The sural nerve innervates the lateral longitudinal third of the plantar paw and therefore, mechanical sensitivity was assessed in this area.
# The selection of animals was performed on day 13 post-operation before animals were placed in their experimental groups. Animals with a pain threshold of <4 grams for an operated leg following Von Frey testing were included in the study. To form homogenous treatment groups, all the selected animals were grouped using a random sampling method on study day 13, to form groups with similar pain threshold mean. For blinding purposes, the researcher who dosed the animals with test items was different than the researcher who conducted the VF tests. […]
# T1 sequence (Q8NER1 whole entry): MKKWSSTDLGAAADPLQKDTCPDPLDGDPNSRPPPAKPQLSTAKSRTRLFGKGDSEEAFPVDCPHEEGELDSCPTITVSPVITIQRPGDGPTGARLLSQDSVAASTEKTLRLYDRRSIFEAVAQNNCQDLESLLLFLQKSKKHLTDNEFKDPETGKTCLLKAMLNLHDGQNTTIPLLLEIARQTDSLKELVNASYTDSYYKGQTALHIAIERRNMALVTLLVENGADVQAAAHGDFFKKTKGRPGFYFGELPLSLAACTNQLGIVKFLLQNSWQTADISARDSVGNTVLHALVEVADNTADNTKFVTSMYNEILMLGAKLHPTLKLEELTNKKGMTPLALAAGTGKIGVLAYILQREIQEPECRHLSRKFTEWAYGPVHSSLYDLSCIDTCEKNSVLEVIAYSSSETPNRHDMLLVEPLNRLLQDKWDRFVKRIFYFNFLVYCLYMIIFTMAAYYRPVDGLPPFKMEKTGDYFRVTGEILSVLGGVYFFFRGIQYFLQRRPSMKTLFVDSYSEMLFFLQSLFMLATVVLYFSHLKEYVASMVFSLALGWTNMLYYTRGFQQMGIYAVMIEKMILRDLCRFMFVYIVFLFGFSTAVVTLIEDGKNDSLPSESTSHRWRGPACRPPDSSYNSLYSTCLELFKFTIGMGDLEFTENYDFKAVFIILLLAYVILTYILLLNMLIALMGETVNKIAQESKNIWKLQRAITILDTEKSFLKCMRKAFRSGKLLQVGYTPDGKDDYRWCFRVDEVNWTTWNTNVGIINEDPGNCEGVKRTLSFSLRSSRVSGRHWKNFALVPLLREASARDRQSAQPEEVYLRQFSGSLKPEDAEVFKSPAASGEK
Compound,Human Hepatocytes MetID (glutathione conjugation) [1],"efflux ratio at 2 h, 2 µM [2]",logD [3],HLM and/or Rat PK clearance rates compared to compound 661 [4],half-life at 1 µM [4] [min],IC50 (hTRPV1) [µM],Micronucleus response Absolute MEC (CHO-K1 cells) [µM],CC50 at 3 h (In vitro micronucleus) [µM],Reversal of PWT [5]
O=C(Cc1cc(-n2cc(Cl)c3cc(Cl)cc(Cl)c32)cnn1)N[C@@H]1COC[C@H]1O [Compound 830],did not indicate the presence of glutathione conjugation,84,3.2,improved HLM and/or Rat PK clearance rates compared to compound 661,58.1,–,–,–,–
O=C(Cc1cc(-n2cc(Cl)c3cc(Cl)cc(Cl)c32)ncn1)N[C@@H]1COC[C@H]1O [Compound 840],did not indicate the presence of glutathione conjugation and None,5.4,3.63,improved HLM and/or Rat PK clearance rates compared to compound 661,52,0.479,–,–,–
"O=P1(N(CCCl)CCCl)NCCCO1 (centres unmarked) [Cyclophosphamide, reference compound]",–,–,–,–,–,–,>400,41.4,–
"CC(C)C[C@H](CN)CC(=O)O [Pregabalin, reference compound]",–,–,–,–,–,–,–,–,61% and 50%
